Results: ChEMBL document CHEMBL1949531, “Synthesis and antiviral activities of novel gossypol derivatives” (Bioorg Med Chem Lett, 2012)
Active and inactive are the calls of the source. The calls are words filed in the database; no cut-off is given here.

Legend:
[1] = system: Human immunodeficiency virus 1; assay: Antiviral activity against HIV1 3B infected human TZM-bl cells assessed as inhibition of viral replication at 10 uM treated 8 hrs after viral infection by luciferase reporter assay; assay type: functional, organism-based
[2] = system: Human immunodeficiency virus 1; assay: Antiviral activity against HIV1 3B infected human TZM-bl cells assessed as inhibition of viral replication by luciferase reporter assay; assay type: functional, organism-based
[3] = biological target: Human immunodeficiency virus type 1 reverse transcriptase (Human immunodeficiency virus 1) (UniProt Q72547); assay: Inhibition of HIV1 reverse transcriptase activity at 0.8 ug/ml
Albumin = Albumin (Homo sapiens, UniProt P02768); assay: Binding affinity to human serum albumin by fluorescence quenching assay; assay type: ADME; conditions: isolated protein
[4] = Cytotoxicity against MDCK cells by MTT assay; assay type: cell-based, Canis lupus familiaris; conditions: dog
[5] = biological target: Human immunodeficiency virus type 1 reverse transcriptase (Human immunodeficiency virus 1) (UniProt Q72547); assay: Inhibition of HIV1 reverse transcriptase activity at 20 ug/ml
[6] = biological target: Human immunodeficiency virus type 1 reverse transcriptase (Human immunodeficiency virus 1) (UniProt Q72547); assay: Inhibition of HIV1 reverse transcriptase activity at 4 ug/ml
[7] = biological target: Human immunodeficiency virus type 1 reverse transcriptase (Human immunodeficiency virus 1) (UniProt Q72547); assay: Inhibition of HIV1 reverse transcriptase activity
[8] = Cytotoxicity in human TZM-bl cells by MTT assay; assay type: cell-based
Influenza A virus = assay: Antiviral activity against Influenza A virus (A/Vietnam/1194/2004(H5N1)) infected in MDCK cells assessed as inhibition of viral replication by plaque reduction assay; assay type: functional, organism-based
[9] = system: Human immunodeficiency virus 1; assay: Antiviral activity against HIV1 3B infected human TZM-bl cells assessed as inhibition of viral replication at 10 uM treated immediately after infection by luciferase reporter assay; assay type: functional, organism-based
[10] = system: Human immunodeficiency virus 1; assay: Antiviral activity against HIV1 3B infected human TZM-bl cells assessed as inhibition of viral replication at 10 uM treated 2 hrs after viral infection by luciferase reporter assay; assay type: functional, organism-based
[11] = Selectivity index, ratio of CC50 for MDCK cells to IC50 for Influenza A virus (A/Vietnam/1194/2004(H5N1)); assay type: functional
[12] = biological target: Neuraminidase (Influenza A virus) (UniProt B4URF0); assay: Inhibition of Influenza A virus neuraminidase up to 10 uM
[13] = Selectivity index, ratio of CC50 for human TZM-bl cells to IC50 for HIV1 3B; assay type: functional
[14] = Human immunodeficiency virus 1, 3B, TZM-bl, read-out: IC50

Sequence of Albumin (P02768 whole entry): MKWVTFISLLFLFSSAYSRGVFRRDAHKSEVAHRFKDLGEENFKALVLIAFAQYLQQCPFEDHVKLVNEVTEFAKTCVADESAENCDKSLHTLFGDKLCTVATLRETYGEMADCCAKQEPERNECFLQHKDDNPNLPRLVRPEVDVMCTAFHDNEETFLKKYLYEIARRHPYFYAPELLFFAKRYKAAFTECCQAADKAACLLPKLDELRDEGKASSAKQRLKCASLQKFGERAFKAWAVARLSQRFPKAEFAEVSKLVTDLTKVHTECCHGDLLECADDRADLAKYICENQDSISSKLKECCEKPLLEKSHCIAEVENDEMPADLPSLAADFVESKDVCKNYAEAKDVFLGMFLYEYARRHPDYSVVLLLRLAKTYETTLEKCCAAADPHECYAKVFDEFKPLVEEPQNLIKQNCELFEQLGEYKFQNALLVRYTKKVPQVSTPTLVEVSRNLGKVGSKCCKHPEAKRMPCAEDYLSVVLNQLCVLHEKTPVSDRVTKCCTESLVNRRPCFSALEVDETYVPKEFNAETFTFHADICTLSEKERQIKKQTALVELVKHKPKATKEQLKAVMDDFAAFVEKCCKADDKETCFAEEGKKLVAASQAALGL
Sequence of Neuraminidase (Influenza A virus) (B4URF0 as listed by the source): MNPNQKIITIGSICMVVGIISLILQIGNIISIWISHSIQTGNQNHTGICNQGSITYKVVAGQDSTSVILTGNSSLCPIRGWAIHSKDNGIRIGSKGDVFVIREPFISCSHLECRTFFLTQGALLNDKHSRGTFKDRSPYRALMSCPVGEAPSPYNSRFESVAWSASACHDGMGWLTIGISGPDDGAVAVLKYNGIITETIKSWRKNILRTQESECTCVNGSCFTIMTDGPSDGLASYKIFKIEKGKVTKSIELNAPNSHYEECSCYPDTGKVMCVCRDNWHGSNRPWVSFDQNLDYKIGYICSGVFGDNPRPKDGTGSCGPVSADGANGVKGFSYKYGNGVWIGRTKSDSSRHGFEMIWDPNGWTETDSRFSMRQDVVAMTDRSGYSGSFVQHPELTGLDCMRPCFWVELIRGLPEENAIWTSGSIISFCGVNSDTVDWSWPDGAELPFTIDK

SMILES | inhibition [1] | IC50 [2, 14] | inhibition [3] | Ka (Albumin) | CC50 [4] | inhibition [5] | inhibition [6] | inhibition [7] | IC50 ([2]; tzm-bl) | CC50 [8] | IC50 (Influenza A virus) | inhibition [9] | inhibition [10] | Ratio CC50/IC50 [11] | inhibition [12] | Ratio CC50/IC50 [13]
Cc1cn([C@H]2C[C@H](N=[N+]=[N-])[C@@H](CO)O2)c(=O)[nH]c1=O [ZIDOVUDINE] | Active | 2.8 nM |  |  |  |  |  |  |  |  |  |  |  |  |  | 
Cc1cc2c(C(C)C)c(O)c(O)c(C=O)c2c(O)c1-c1c(C)cc2c(C(C)C)c(O)c(O)c(C=O)c2c1O [GOSSYPOL] |  |  | inactive | 2.3906 ×10⁵ L/mol | 3.53 µM | 73.2% | 76.3% | Dose-dependent effect | Not Active | 9.76 µM |  |  |  |  |  | 
Cc1cc2c(c(O)c1-c1c(C)cc3c(c1O)/C(=C/N[C@@H](Cc1c[nH]c4ccccc14)C(=O)[O-])C(=O)C(O)=C3C(C)C)/C(=C/N[C@@H](Cc1c[nH]c3ccccc13)C(=O)[O-])C(=O)C(O)=C2C(C)C.[Na+].[Na+] |  | 990 nM |  | 9.2747 ×10⁴ L/mol | > 35.7 µM |  |  |  |  | 48 µM | 280 nM | Active | inactive | >127.46 | inactive | 48.43
CC[C@H](C)[C@H](N/C=C1\C(=O)C(O)=C(C(C)C)c2cc(C)c(-c3c(C)cc4c(c3O)/C(=C/N[C@H](C(=O)[O-])[C@@H](C)CC)C(=O)C(O)=C4C(C)C)c(O)c21)C(=O)[O-].[Na+].[Na+] |  | 1120 nM |  | 5.3223 ×10⁴ L/mol | > 42.3 µM |  |  |  |  | 64.5 µM | 340 nM | Active | inactive | >124.41 | inactive | 57.57
